PubChem BioAssay (NCI)
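Growth conditions: 96-well plates. Treatment: test compound, 48 hours, 5 concentrations. Analysis: linear interpolation between bracketing concentrations; unreached endpoints set to highest concentration. TGI denotes the concentration required for complete inhibition of growth.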

Legend:
Experiment in all cases: NCI-60 cell line screen, 48 h
CAKI-1 renal = tested on: CAKI-1 renal
COLO 205 colon = tested on: COLO 205 colon
HOP-18 NSCLC = tested on: HOP-18 NSCLC
RPMI-8226 leukemia = tested on: RPMI-8226 leukemia
DLD-1 colon = tested on: DLD-1 colon
EKVX NSCLC = tested on: EKVX NSCLC
NCI-H23 lung = tested on: NCI-H23 lung
UO-31 renal = tested on: UO-31 renal
NCI-H226 lung = tested on: NCI-H226 lung
SR leukemia = tested on: SR leukemia
MALME-3M melanoma = tested on: MALME-3M melanoma
A549 NSCLC = tested on: A549 NSCLC
HOP-92 NSCLC = tested on: HOP-92 NSCLC
NCI-H460 lung = tested on: NCI-H460 lung
OVCAR-4 ovarian = tested on: OVCAR-4 ovarian
CCRF-CEM leukemia = tested on: CCRF-CEM leukemia
RXF 393 renal = tested on: RXF 393 renal
SNB-75 CNS = tested on: SNB-75 CNS
KM12 colon = tested on: KM12 colon
TK-10 renal = tested on: TK-10 renal
OVCAR-8 ovarian = tested on: OVCAR-8 ovarian
DMS 273 small cell lung = tested on: DMS 273 small cell lung
XF 498 CNS = tested on: XF 498 CNS
HCT-15 colon = tested on: HCT-15 colon
SF-268 CNS = tested on: SF-268 CNS
IGROV1 ovarian = tested on: IGROV1 ovarian
SNB-19 CNS = tested on: SNB-19 CNS
HCC-2998 colon = tested on: HCC-2998 colon
HL-60(TB) leukemia = tested on: HL-60(TB) leukemia
HCT-116 colon = tested on: HCT-116 colon
HT29 colon = tested on: HT29 colon
UACC-257 melanoma = tested on: UACC-257 melanoma
SK-MEL-5 melanoma = tested on: SK-MEL-5 melanoma
M14 melanoma = tested on: M14 melanoma
SF-295 CNS = tested on: SF-295 CNS
MOLT-4 leukemia = tested on: MOLT-4 leukemia
SK-MEL-28 melanoma = tested on: SK-MEL-28 melanoma
SW-620 colon = tested on: SW-620 colon
DMS 114 small cell lung = tested on: DMS 114 small cell lung
SK-MEL-2 melanoma = tested on: SK-MEL-2 melanoma
LOX IMVI melanoma = tested on: LOX IMVI melanoma
SN12C renal = tested on: SN12C renal
OVCAR-5 ovarian = tested on: OVCAR-5 ovarian
LXFL 529 NSCLC = tested on: LXFL 529 NSCLC
A498 renal = tested on: A498 renal
U251 CNS = tested on: U251 CNS
SNB-78 CNS = tested on: SNB-78 CNS
SF-539 CNS = tested on: SF-539 CNS
ACHN renal = tested on: ACHN renal
HOP-62 NSCLC = tested on: HOP-62 NSCLC
UACC-62 melanoma = tested on: UACC-62 melanoma
KM20L2 colon = tested on: KM20L2 colon
786-0 renal = tested on: 786-0 renal
M19-MEL melanoma = tested on: M19-MEL melanoma
K-562 leukemia = tested on: K-562 leukemia
SK-OV-3 ovarian = tested on: SK-OV-3 ovarian

Question: How did the TGI (CAKI-1 renal) turn out when `CCCn1cc2c(=O)[nH]c(SC)nc2n1` was run?
Answer: > 100 µM

Question: What about the TGI (COLO 205 colon) of the same compound?
Answer: > 100 µM

Question: What about the TGI (HOP-18 NSCLC) of the same compound?
Answer: > 100 µM

Question: And the TGI (RPMI-8226 leukemia)?
Answer: > 100 µM

Question: What about the TGI (DLD-1 colon) of the same compound?
Answer: > 100 µM

Question: And the TGI (EKVX NSCLC)?
Answer: > 100 µM

Question: And the TGI (NCI-H23 lung)?
Answer: > 100 µM

Question: And the TGI (UO-31 renal)?
Answer: > 100 µM

Question: And the TGI (NCI-H226 lung)?
Answer: 89.1 µM

Question: And the TGI (SR leukemia)?
Answer: > 100 µM

Question: What about the TGI (MALME-3M melanoma) of the same compound?
Answer: > 100 µM

Question: And the TGI (A549 NSCLC)?
Answer: > 100 µM

Question: And the TGI (HOP-92 NSCLC)?
Answer: > 100 µM

Question: And the TGI (NCI-H460 lung)?
Answer: > 100 µM

Question: What about the TGI (OVCAR-4 ovarian) of the same compound?
Answer: > 100 µM

Question: What about the TGI (CCRF-CEM leukemia) of the same compound?
Answer: > 100 µM

Question: And the TGI (RXF 393 renal)?
Answer: > 100 µM

Question: And the TGI (SNB-75 CNS)?
Answer: > 100 µM

Question: What about the TGI (KM12 colon) of the same compound?
Answer: > 100 µM

Question: And the TGI (TK-10 renal)?
Answer: > 100 µM

Question: And the TGI (OVCAR-8 ovarian)?
Answer: > 100 µM

Question: What about the TGI (DMS 273 small cell lung) of the same compound?
Answer: > 100 µM

Question: What about the TGI (XF 498 CNS) of the same compound?
Answer: 98.1 µM

Question: And the TGI (HCT-15 colon)?
Answer: > 100 µM

Question: And the TGI (SF-268 CNS)?
Answer: > 100 µM

Question: What about the TGI (IGROV1 ovarian) of the same compound?
Answer: > 100 µM

Question: What about the TGI (SNB-19 CNS) of the same compound?
Answer: > 100 µM

Question: What about the TGI (HCC-2998 colon) of the same compound?
Answer: > 100 µM

Question: What about the TGI (HL-60(TB) leukemia) of the same compound?
Answer: > 100 µM

Question: And the TGI (HCT-116 colon)?
Answer: > 100 µM

Question: And the TGI (HT29 colon)?
Answer: > 100 µM

Question: And the TGI (UACC-257 melanoma)?
Answer: > 100 µM

Question: And the TGI (SK-MEL-5 melanoma)?
Answer: > 100 µM

Question: What about the TGI (M14 melanoma) of the same compound?
Answer: > 100 µM

Question: And the TGI (SF-295 CNS)?
Answer: > 100 µM

Question: And the TGI (MOLT-4 leukemia)?
Answer: > 100 µM

Question: What about the TGI (SK-MEL-28 melanoma) of the same compound?
Answer: > 100 µM

Question: What about the TGI (SW-620 colon) of the same compound?
Answer: > 100 µM

Question: And the TGI (DMS 114 small cell lung)?
Answer: > 100 µM

Question: What about the TGI (SK-MEL-2 melanoma) of the same compound?
Answer: > 100 µM

Question: What about the TGI (LOX IMVI melanoma) of the same compound?
Answer: > 100 µM

Question: And the TGI (SN12C renal)?
Answer: > 100 µM

Question: What about the TGI (OVCAR-5 ovarian) of the same compound?
Answer: > 100 µM

Question: And the TGI (LXFL 529 NSCLC)?
Answer: > 100 µM

Question: And the TGI (A498 renal)?
Answer: > 100 µM

Question: And the TGI (U251 CNS)?
Answer: > 100 µM

Question: And the TGI (SNB-78 CNS)?
Answer: > 100 µM

Question: What about the TGI (SF-539 CNS) of the same compound?
Answer: > 100 µM

Question: What about the TGI (ACHN renal) of the same compound?
Answer: > 100 µM

Question: `CC#Cc1c(O)c2c(c(O)c1C#CC)C(=O)c1ccccc1C2=O` was tested. Which TGI (CAKI-1 renal) did it give?
Answer: > 100 µM

Question: What about the TGI (COLO 205 colon) of the same compound?
Answer: > 100 µM

Question: What about the TGI (HOP-62 NSCLC) of the same compound?
Answer: > 100 µM

Question: And the TGI (RPMI-8226 leukemia)?
Answer: > 100 µM

Question: What about the TGI (DLD-1 colon) of the same compound?
Answer: > 100 µM

Question: And the TGI (EKVX NSCLC)?
Answer: > 100 µM

Question: What about the TGI (SR leukemia) of the same compound?
Answer: > 100 µM

Question: What about the TGI (MALME-3M melanoma) of the same compound?
Answer: > 100 µM

Question: And the TGI (A549 NSCLC)?
Answer: > 100 µM

Question: What about the TGI (OVCAR-4 ovarian) of the same compound?
Answer: > 100 µM

Question: And the TGI (UACC-62 melanoma)?
Answer: > 100 µM

Question: What about the TGI (CCRF-CEM leukemia) of the same compound?
Answer: > 100 µM

Question: What about the TGI (KM20L2 colon) of the same compound?
Answer: > 100 µM

Question: And the TGI (TK-10 renal)?
Answer: > 100 µM

Question: And the TGI (OVCAR-8 ovarian)?
Answer: > 100 µM

Question: And the TGI (786-0 renal)?
Answer: > 100 µM

Question: What about the TGI (DMS 273 small cell lung) of the same compound?
Answer: > 100 µM

Question: And the TGI (XF 498 CNS)?
Answer: > 100 µM

Question: What about the TGI (HCT-15 colon) of the same compound?
Answer: > 100 µM

Question: And the TGI (IGROV1 ovarian)?
Answer: > 100 µM

Question: And the TGI (M19-MEL melanoma)?
Answer: > 100 µM

Question: And the TGI (HCC-2998 colon)?
Answer: > 100 µM

Question: What about the TGI (HL-60(TB) leukemia) of the same compound?
Answer: > 100 µM

Question: What about the TGI (SK-MEL-5 melanoma) of the same compound?
Answer: > 100 µM

Question: What about the TGI (M14 melanoma) of the same compound?
Answer: > 100 µM

Question: What about the TGI (MOLT-4 leukemia) of the same compound?
Answer: > 100 µM

Question: What about the TGI (SW-620 colon) of the same compound?
Answer: > 100 µM

Question: What about the TGI (DMS 114 small cell lung) of the same compound?
Answer: > 100 µM

Question: And the TGI (SK-MEL-2 melanoma)?
Answer: > 100 µM

Question: And the TGI (LOX IMVI melanoma)?
Answer: > 100 µM

Question: What about the TGI (SN12C renal) of the same compound?
Answer: > 100 µM

Question: What about the TGI (K-562 leukemia) of the same compound?
Answer: > 100 µM

Question: What about the TGI (OVCAR-5 ovarian) of the same compound?
Answer: > 100 µM

Question: What about the TGI (LXFL 529 NSCLC) of the same compound?
Answer: 42.7 µM

Question: And the TGI (SK-OV-3 ovarian)?
Answer: > 100 µM

Question: What about the TGI (U251 CNS) of the same compound?
Answer: > 100 µM

Question: What about the TGI (ACHN renal) of the same compound?
Answer: > 100 µM
